# From paper PMC10208956, “Microbial peptides activate tumour-infiltrating lymphocytes in glioblastoma” (Nature, 2023)
# Tested on: isolated TIL-derived CD4+ TCCs
# Experiment: All isolated TCCs tested against SIN3A* peptide: IFNγ ELISA
# Type: cell-based, human
# Set-up: unit not given beside the values
substance,measurement,setting,value
Ac-QPVEFNHAIHYVN-NH2 [SIN3A*],ΔIFN-γ,"TCC4, sheet 2b",149.53
same,ΔIFN-γ,"TCC11, sheet 2b",677.024
same,ΔIFN-γ,"TCC12, sheet 2b",3046.79
same,ΔIFN-γ,"TCC13, sheet 2b",3192.25
same,ΔIFN-γ,"TCC15, sheet 2b",3025.62
same,ΔIFN-γ,"TCC16, sheet 2b",180.455
same,ΔIFN-γ,"TCC20, sheet 2b",364.759
same,ΔIFN-γ,"TCC29, sheet 2b",1013.6
same,ΔIFN-γ,"TCC31, sheet 2b",514.2
same,ΔIFN-γ,"TCC33, sheet 2b",2998.1
same,ΔIFN-γ,"TCC35, sheet 2b",228.964
same,ΔIFN-γ,"TCC38, sheet 2b",2702.02
same,ΔIFN-γ,"TCC43, sheet 2b",1674.62
same,ΔIFN-γ,"TCC47, sheet 2b",2470.16
same,ΔIFN-γ,"TCC52, sheet 2b",3139.72
same,ΔIFN-γ,"TCC56, sheet 2b",642.429
same,ΔIFN-γ,"TCC57, sheet 2b",2874.97
same,ΔIFN-γ,"TCC60, sheet 2b",2990.72
same,ΔIFN-γ,"TCC63, sheet 2b",2437.29
same,ΔIFN-γ,"TCC64, sheet 2b",999.502
same,ΔIFN-γ,"TCC68, sheet 2b",1874.1
same,ΔIFN-γ,"TCC71, sheet 2b",665.867
same,ΔIFN-γ,"TCC74, sheet 2b",114.375
same,ΔIFN-γ,"TCC75, sheet 2b",2585.8
same,ΔIFN-γ,"TCC76, sheet 2b",3066.75
same,ΔIFN-γ,"TCC80, sheet 2b",218.522
same,ΔIFN-γ,"TCC88, sheet 2b",3049.73
same,ΔIFN-γ,"TCC90, sheet 2b",3011.57
same,ΔIFN-γ,"TCC91, sheet 2b",1519.81
same,ΔIFN-γ,"TCC92, sheet 2b",2090.54
same,ΔIFN-γ,"TCC93, sheet 2b",2670.59
same,ΔIFN-γ,"TCC94, sheet 2b",2350.89
same,ΔIFN-γ,"TCC96, sheet 2b",2552.89
same,ΔIFN-γ,"TCC97, sheet 2b",2298.23
same,ΔIFN-γ,"TCC98, sheet 2b",2713.07
same,ΔIFN-γ,"TCC99, sheet 2b",3298.51
same,ΔIFN-γ,"TCC101, sheet 2b",3002.86
same,ΔIFN-γ,"TCC102, sheet 2b",3070.31
same,ΔIFN-γ,"TCC103, sheet 2b",2311.95
same,ΔIFN-γ,"TCC104, sheet 2b",2494.03
same,ΔIFN-γ,"TCC107, sheet 2b",2341.01
same,ΔIFN-γ,"TCC109, sheet 2b",2148.29
same,ΔIFN-γ,"TCC110, sheet 2b",2115.13
same,ΔIFN-γ,"TCC111, sheet 2b",2750.31
same,ΔIFN-γ,"TCC112, sheet 2b",334.245
same,ΔIFN-γ,"TCC113, sheet 2b",2127.79
same,ΔIFN-γ,"TCC114, sheet 2b",270.204
same,ΔIFN-γ,"TCC115, sheet 2b",2141.31
same,ΔIFN-γ,"TCC116, sheet 2b",2065.23
same,ΔIFN-γ,"TCC117, sheet 2b",2609.06
same,ΔIFN-γ,"TCC120, sheet 2b",5141.59
same,ΔIFN-γ,"TCC121, sheet 2b",3587.93
same,ΔIFN-γ,"TCC124, sheet 2b",8256.17
same,ΔIFN-γ,"TCC125, sheet 2b",202.234
same,ΔIFN-γ,"TCC126, sheet 2b",7530.28
same,ΔIFN-γ,"TCC127, sheet 2b",9381.79
same,ΔIFN-γ,"TCC128, sheet 2b",4427.79
same,ΔIFN-γ,"TCC129, sheet 2b",4034.06
same,ΔIFN-γ,"TCC130, sheet 2b",4723.17
same,ΔIFN-γ,"TCC131, sheet 2b",125.708
same,ΔIFN-γ,"TCC132, sheet 2b",7560.44
same,ΔIFN-γ,"TCC133, sheet 2b",4444.38
same,ΔIFN-γ,"TCC134, sheet 2b",2468
same,ΔIFN-γ,"TCC135, sheet 2b",4703.02
same,ΔIFN-γ,"TCC137, sheet 2b",3613.61
same,ΔIFN-γ,"TCC138, sheet 2b",0
